Reference: BindingDB's records for doi:10.1021/acs.jmedchem.7b00076 (University of Chinese Academy of Sciences, 2017)

Legend:
[1] = Inhibition of TEL-fused KDR (unknown origin) expressed in mouse Ba/F3 cells assessed as inhibition of cell proliferation after 72 hrs by cell counting kit-8 assay
[2] = Inhibition of FGFR1OP2 fused FGFR1 in human KG1 cells assessed as inhibition of cell proliferation after 72 hrs by cell counting kit-8 assay
[3] = Inhibition of CCDC6-fused RET (unknown origin) expressed in mouse Ba/F3 cells assessed as inhibition of cell proliferation after 72 hrs by cell counting kit-8 assay
[4] = Inhibition of FGFR1 in human NCI-H1581 cells assessed as inhibition of cell proliferation after 72 hrs by cell counting kit-8 assay

- IC50 [1]: 9.8 nM
- IC50 [2]: 15 nM
- IC50 [3]: 316 nM
- IC50 [4]: 391 nM
Compound: Cc1n[nH]c2ccc(-c3cc(N[C@@H](CO)c4ccccc4)cnc3-c3cc(F)ccc3O)cc12
